According to ChEMBL document CHEMBL4387741, “Optimization of novel reversible Bruton's tyrosine kinase inhibitors identified using Tethering-fragment-based screens” (Bioorg Med Chem, 2019):

Tests used:
[1] = biological target: Mitogen-activated protein kinase kinase kinase 19 (Homo sapiens) (UniProt Q56UN5); assay: Inhibition of wild-type human partial length YSK4 (T1019 to H1328 residues) expressed in mammalian expression system at 1 uM by Kinomescan method relative to control
[2] = Volume of distribution at steady state in Sprague-Dawley rat at 1 mg/kg, iv; format: ADME, organism-based; details: in vivo, read-out: Vdss
[3] = biological target: Proto-oncogene tyrosine-protein kinase ROS (Homo sapiens) (UniProt P08922); assay: Inhibition of wild-type human partial length ROS1 (A1921 to N2240 residues) expressed in bacterial expression system at 1 uM by Kinomescan method relative to control
[4] = biological target: Phosphatidylinositol 4,5-bisphosphate 3-kinase catalytic subunit beta isoform (Homo sapiens) (UniProt P42338); assay: Inhibition of wild-type human partial length PIK3CB (P118 to S1070 residues) expressed in mammalian expression system at 1 uM by Kinomescan method relative to control
[5] = biological target: Vascular endothelial growth factor receptor 2 (Homo sapiens) (UniProt P35968); assay: Inhibition of wild-type human partial length VEGFR2 (R787 to P1253 residues) expressed in mammalian expression system at 1 uM by Kinomescan method relative to control
[6] = biological target: Serine/threonine-protein kinase MARK2 (Homo sapiens) (UniProt Q7KZI7); assay: Inhibition of wild-type human partial length MARK2 (M1 to R450 residues) expressed in bacterial expression system at 1 uM by Kinomescan method relative to control
[7] = biological target: Serine/threonine-protein kinase Chk1 (Homo sapiens) (UniProt O14757); assay: Inhibition of wild-type human partial length CHEK1 (M1 to G289 residues) expressed in bacterial expression system at 1 uM by Kinomescan method relative to control
[8] = biological target: Ribosomal protein S6 kinase alpha-3 (Homo sapiens) (UniProt P51812); assay: Inhibition of wild-type human partial length N-terminal RSK2 kinase domain 1 (M1 to D394 residues) expressed in mammalian expression system at 1 uM by Kinomescan method relative to control
[9] = biological target: Phosphatidylinositol 3-kinase C2 domain-containing subunit gamma (Homo sapiens) (UniProt O75747); assay: Inhibition of wild-type human partial length PIK3C2G (M1 to I1446 residues) expressed in mammalian expression system at 1 uM by Kinomescan method relative to control
[10] = system: Receptor-type tyrosine-protein kinase FLT3 (Homo sapiens), P36888 [D835H]; assay: Inhibition of human partial length FLT3 D835H mutant (V592 to Y969 residues) expressed in bacterial expression system at 10 uM by Kinomescan method relative to control
[11] = system: Epidermal growth factor receptor (Homo sapiens), P00533 [L858R,T790M]; assay: Inhibition of human partial length EGFR L858R/T790M double mutant (R669 to V1011 residues) expressed in mammalian expression system at 10 uM by Kinomescan method relative to control
[12] = biological target: Casein kinase I isoform gamma-1 (Homo sapiens) (UniProt Q9HCP0); assay: Inhibition of wild-type human partial length CSNK1G1 (T15 to S353 residues) expressed in bacterial expression system at 10 uM by Kinomescan method relative to control
[13] = biological target: Dual specificity mitogen-activated protein kinase kinase 4 (Homo sapiens) (UniProt P45985); assay: Inhibition of wild-type human partial length MEK4 (S84 to D399 residues) expressed in mammalian expression system at 10 uM by Kinomescan method relative to control
[14] = biological target: Serine/threonine-protein kinase 38 (Homo sapiens) (UniProt Q15208); assay: Inhibition of wild-type human partial length NDR1 (N33 to E449 residues) expressed in mammalian expression system at 10 uM by Kinomescan method relative to control
[15] = system: Epidermal growth factor receptor (Homo sapiens), P00533 [UNDEFINED MUTATION]; assay: Inhibition of human partial length EGFR L747-S752del/P753S mutant expressed in bacterial expression system at 10 uM by Kinomescan method relative to control
[16] = biological target: Calcium/calmodulin-dependent protein kinase type II subunit alpha (Homo sapiens) (UniProt Q9UQM7); assay: Inhibition of wild-type human partial length CAMK2A (M1 to K328 residues) expressed in bacterial expression system at 10 uM by Kinomescan method relative to control
[17] = biological target: Aurora kinase B (Homo sapiens) (UniProt Q96GD4); assay: Inhibition of wild-type human partial length AURKB (D25 to A303 residues) expressed in mammalian expression system at 10 uM by Kinomescan method relative to control
[18] = biological target: Mitogen-activated protein kinase kinase kinase 7 (Homo sapiens) (UniProt O43318); assay: Inhibition of wild-type human partial length TAK1 (M1 to Q303 residues) expressed in mammalian expression system at 10 uM by Kinomescan method relative to control
[19] = biological target: Activin receptor type-1B (Homo sapiens) (UniProt P36896); assay: Inhibition of wild-type human ACVR1B (S187 to I505 residues) expressed in bacterial expression system at 10 uM by Kinomescan method relative to control
[20] = biological target: Cyclin-dependent kinase 7 (Homo sapiens) (UniProt P50613); assay: Inhibition of wild-type human full length CDK7 (M1 to L344 residues) expressed in mammalian expression system at 10 uM by Kinomescan method relative to control
[21] = biological target: Receptor tyrosine-protein kinase erbB-2 (Homo sapiens) (UniProt P04626); assay: Inhibition of wild-type human partial length ERBB2 (K646 to V1225 residues) expressed in mammalian expression system at 10 uM by Kinomescan method relative to control
[22] = biological target: Calcium/calmodulin-dependent protein kinase type 1 (Homo sapiens) (UniProt Q14012); assay: Inhibition of wild-type human full length CAMK1 (M1 to L370 residues) expressed in bacterial expression system at 10 uM by Kinomescan method relative to control
[23] = biological target: Dual specificity tyrosine-phosphorylation-regulated kinase 1A (Homo sapiens) (UniProt Q13627); assay: Inhibition of wild-type human partial length DYRK1A (H129 to S509 residues) expressed in mammalian expression system at 10 uM by Kinomescan method relative to control
[24] = biological target: Mitogen-activated protein kinase 1 (Homo sapiens) (UniProt P28482); assay: Inhibition of wild-type human full length ERK2 (M1 to S360 residues) expressed in bacterial expression system at 10 uM by Kinomescan method relative to control
[25] = system: Phosphatidylinositol 4,5-bisphosphate 3-kinase catalytic subunit alpha isoform (Homo sapiens), P42336 [C420R]; assay: Inhibition of human partial length PIK3CA C420R mutant (R108 to N1068 residues) expressed in mammalian expression system at 10 uM by Kinomescan method relative to control
[26] = biological target: Mitogen-activated protein kinase 11 (Homo sapiens) (UniProt Q15759); assay: Inhibition of wild-type human full length p38-beta (M1 to Q364 residues) expressed in bacterial expression system at 10 uM by Kinomescan method relative to control
[27] = system: Hepatocyte growth factor receptor (Homo sapiens), P08581 [Y1235D]; assay: Inhibition of human partial length MET Y1235D mutant (D1010 to S1367 residues) expressed in bacterial expression system at 10 uM by Kinomescan method relative to control

Phosphatidylinositol 3-kinase C2 domain-containing subunit gamma (Homo sapiens), sequence (O75747 whole entry, the tested form may be a part): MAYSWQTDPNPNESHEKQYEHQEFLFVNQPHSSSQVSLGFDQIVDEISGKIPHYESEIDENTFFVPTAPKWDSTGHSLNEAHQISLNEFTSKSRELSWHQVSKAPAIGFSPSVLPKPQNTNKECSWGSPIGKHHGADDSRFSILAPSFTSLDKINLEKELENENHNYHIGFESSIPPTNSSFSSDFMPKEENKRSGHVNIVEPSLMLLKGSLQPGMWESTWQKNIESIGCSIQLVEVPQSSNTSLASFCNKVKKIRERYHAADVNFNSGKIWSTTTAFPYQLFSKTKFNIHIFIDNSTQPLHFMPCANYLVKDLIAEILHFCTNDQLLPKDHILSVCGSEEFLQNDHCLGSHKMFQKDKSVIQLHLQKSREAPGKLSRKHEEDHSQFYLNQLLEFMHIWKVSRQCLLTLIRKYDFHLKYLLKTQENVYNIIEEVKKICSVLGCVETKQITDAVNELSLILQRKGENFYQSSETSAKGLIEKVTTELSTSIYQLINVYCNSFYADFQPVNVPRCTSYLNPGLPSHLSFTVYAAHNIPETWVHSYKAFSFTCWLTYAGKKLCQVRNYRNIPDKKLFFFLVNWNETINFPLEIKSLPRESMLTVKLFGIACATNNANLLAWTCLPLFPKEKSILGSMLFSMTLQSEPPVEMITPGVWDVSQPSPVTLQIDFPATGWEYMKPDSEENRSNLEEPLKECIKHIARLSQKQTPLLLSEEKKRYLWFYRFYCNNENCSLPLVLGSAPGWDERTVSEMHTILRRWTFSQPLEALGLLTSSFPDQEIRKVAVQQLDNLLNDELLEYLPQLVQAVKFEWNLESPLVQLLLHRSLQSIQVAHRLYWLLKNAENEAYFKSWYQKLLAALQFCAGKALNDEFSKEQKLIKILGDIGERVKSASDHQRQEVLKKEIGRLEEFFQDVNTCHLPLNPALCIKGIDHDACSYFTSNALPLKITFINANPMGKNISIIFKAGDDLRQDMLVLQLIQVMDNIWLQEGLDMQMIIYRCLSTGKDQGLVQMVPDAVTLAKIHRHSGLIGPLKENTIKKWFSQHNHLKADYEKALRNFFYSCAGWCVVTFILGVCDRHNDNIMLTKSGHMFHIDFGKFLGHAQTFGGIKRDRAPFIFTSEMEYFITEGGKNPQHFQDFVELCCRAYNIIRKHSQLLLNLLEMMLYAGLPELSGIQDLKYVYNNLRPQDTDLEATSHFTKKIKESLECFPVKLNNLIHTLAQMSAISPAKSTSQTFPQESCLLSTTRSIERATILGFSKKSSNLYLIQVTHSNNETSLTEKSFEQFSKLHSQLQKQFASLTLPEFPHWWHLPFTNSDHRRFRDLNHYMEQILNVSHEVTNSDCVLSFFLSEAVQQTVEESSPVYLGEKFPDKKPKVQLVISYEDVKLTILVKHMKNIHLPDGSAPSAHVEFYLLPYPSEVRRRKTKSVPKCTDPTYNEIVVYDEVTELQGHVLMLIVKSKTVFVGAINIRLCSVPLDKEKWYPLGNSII
Receptor tyrosine-protein kinase erbB-2 (Homo sapiens), sequence (P04626 whole entry, the tested form may be a part): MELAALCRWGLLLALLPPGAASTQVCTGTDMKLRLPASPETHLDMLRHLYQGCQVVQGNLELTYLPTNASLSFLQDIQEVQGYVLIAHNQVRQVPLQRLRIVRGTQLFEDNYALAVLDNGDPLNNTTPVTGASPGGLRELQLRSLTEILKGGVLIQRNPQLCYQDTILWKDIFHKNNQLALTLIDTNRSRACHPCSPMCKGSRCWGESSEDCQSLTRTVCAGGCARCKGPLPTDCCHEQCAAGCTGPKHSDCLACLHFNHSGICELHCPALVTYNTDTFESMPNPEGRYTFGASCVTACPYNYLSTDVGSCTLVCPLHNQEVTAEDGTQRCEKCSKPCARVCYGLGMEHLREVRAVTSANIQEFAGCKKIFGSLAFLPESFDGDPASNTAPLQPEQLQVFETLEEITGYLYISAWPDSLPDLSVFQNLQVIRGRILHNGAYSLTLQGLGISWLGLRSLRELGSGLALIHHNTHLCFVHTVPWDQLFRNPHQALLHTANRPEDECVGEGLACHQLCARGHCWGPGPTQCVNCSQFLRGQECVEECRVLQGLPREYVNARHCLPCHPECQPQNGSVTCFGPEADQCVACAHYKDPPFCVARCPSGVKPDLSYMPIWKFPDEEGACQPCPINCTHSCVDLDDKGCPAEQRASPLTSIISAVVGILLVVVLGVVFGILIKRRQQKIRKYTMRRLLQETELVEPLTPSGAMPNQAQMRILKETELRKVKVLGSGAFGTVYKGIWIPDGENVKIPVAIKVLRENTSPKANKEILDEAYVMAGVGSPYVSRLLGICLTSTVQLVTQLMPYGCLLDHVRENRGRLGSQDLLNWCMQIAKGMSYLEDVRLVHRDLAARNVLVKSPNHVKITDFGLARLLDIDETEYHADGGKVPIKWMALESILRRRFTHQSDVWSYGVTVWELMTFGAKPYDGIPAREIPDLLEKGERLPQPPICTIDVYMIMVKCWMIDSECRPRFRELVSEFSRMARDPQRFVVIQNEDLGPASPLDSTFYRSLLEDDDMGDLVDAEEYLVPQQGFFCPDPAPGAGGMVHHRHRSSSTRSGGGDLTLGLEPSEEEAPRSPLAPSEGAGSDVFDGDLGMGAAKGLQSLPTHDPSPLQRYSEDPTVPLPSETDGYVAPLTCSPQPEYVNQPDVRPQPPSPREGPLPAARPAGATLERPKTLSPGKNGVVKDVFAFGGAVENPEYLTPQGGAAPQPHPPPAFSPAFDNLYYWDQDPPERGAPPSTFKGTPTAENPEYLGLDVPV
Mitogen-activated protein kinase kinase kinase 19 (Homo sapiens), sequence (Q56UN5 whole entry, the tested form may be a part): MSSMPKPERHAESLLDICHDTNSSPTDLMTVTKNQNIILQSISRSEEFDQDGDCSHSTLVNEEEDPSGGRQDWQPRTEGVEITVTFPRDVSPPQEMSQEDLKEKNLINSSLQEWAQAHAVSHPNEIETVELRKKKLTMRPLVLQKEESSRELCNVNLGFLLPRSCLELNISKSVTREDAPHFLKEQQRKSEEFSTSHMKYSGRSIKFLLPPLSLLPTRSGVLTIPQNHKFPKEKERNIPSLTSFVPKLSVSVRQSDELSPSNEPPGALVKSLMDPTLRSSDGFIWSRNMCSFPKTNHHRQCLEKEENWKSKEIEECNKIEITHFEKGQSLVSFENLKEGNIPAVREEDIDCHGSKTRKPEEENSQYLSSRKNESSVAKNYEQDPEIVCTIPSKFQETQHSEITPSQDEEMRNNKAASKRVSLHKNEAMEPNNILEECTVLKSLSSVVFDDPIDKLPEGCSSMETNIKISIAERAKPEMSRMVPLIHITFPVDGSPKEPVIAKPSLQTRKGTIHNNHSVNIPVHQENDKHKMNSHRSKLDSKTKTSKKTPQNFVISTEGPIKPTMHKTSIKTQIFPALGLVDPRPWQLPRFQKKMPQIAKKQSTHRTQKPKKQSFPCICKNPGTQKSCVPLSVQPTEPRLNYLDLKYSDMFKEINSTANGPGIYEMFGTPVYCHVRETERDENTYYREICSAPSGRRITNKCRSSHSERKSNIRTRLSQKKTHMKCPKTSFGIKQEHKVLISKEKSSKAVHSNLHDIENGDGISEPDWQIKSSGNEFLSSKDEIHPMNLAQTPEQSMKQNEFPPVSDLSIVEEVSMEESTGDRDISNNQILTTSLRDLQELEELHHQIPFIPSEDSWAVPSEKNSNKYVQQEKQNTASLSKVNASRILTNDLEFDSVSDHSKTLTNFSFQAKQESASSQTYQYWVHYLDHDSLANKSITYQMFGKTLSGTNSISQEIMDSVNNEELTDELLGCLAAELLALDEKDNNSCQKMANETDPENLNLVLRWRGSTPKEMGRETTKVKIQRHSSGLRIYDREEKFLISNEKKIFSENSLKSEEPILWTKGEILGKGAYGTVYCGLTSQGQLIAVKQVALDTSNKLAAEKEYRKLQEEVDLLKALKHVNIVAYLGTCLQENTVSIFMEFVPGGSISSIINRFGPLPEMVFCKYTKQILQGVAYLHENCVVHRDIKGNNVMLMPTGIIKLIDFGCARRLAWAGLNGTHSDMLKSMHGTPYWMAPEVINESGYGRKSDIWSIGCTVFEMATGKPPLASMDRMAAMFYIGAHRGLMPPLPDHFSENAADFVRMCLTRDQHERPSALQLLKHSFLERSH
Calcium/calmodulin-dependent protein kinase type 1 (Homo sapiens), sequence (Q14012 whole entry, looked up, the tested form may be a part): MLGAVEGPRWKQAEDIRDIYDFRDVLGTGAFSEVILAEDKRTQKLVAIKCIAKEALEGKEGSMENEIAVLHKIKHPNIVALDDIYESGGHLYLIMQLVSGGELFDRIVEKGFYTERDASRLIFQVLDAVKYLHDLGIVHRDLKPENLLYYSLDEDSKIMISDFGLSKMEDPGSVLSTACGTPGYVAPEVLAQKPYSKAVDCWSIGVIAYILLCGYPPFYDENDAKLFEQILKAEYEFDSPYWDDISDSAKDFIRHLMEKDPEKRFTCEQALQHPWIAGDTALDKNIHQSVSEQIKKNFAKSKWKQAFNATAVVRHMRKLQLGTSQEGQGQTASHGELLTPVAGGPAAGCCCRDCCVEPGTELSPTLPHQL
Cyclin-dependent kinase 7 (Homo sapiens), sequence (P50613 whole entry, the tested form may be a part): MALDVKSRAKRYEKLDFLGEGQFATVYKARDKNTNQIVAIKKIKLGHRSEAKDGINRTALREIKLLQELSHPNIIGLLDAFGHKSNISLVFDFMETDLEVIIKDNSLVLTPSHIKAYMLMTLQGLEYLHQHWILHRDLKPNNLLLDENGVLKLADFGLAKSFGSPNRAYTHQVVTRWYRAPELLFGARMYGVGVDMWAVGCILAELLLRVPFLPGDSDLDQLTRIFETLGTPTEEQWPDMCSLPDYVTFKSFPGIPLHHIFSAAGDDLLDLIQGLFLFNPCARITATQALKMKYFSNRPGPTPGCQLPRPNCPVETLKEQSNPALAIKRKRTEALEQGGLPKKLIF

## O=C(Nc1cccc([C@@H]2CN(c3ncnc4[nH]ccc34)CCN2CCO)c1)Nc1c(F)cccc1N1CCCC1
[1]
  inhibition: 40%
[2]
  Vd: 0.21 L/kg
[3]
  inhibition: 97%
[4]
  inhibition: 100%
[5]
  inhibition: 30%
[6]
  inhibition: 69%
[7]
  inhibition: 99%
[8]
  inhibition: 94%
[9]
  inhibition: 95%

## O=C(Nc1cccc([C@H]2CCCN(c3ncnc4[nH]ccc34)C2)c1)Nc1ccccc1N1CCCC1
[10]
  inhibition: 1.3%
[11]
  inhibition: 83%
[12]
  inhibition: 99%
[13]
  inhibition: 1.6%
[14]
  inhibition: 57%
[15]
  inhibition: 87%
[16]
  inhibition: 77%
[17]
  inhibition: 1.1%
[18]
  inhibition: 24%
[19]
  inhibition: 100%
[20]
  inhibition: 70%
[21]
  inhibition: 55%
[22]
  inhibition: 24%
[23]
  inhibition: 81%
[24]
  inhibition: 100%
[25]
  inhibition: 85%
[26]
  inhibition: 100%
[27]
  inhibition: 78%
